Reference: patent publication US20250388592A1 (REMYND N.V., priority 2022, published 2025)

Test system: M17_3TAU(P301L) cells
Assay: TAU-induced cytotoxicity (LDH) in the neuroblastoma tauopathy model
Type: cell-based
Settings: Homo sapiens, 168 h, inhibition of TAU-induced toxicity, 7 days retinoic acid differentiation, LDH readout
Excerpt: A TAU expression plasmid was constructed by sub-cloning the cDNA encoding for human TAU-P301L protein, wherein proline at position 301 is substituted by a leucine residue, into mammalian expression vector pcDNA3.1 resulting in the plasmid pcDNA3.1-TAUP301L. Plasmids pcDNA3.1 and pcDNA3.1-TAU P301L were transfected into human neuroblastoma cells (BE-M17; ATCC No. CRL-2267™) using lipofectamine reagent and subsequently, independent clonal cell lines with the plasmids stably integrated into the genome were selected by antibiotic resistance selection (Geneticin (G418)), resulting in cell lines M17.pcDNA3 and M17_3TAUP301L. Expression of the TAUP301 L gene in the M17_3TAUP301 L cells was confirmed by Western blot analysis.
Differentiation of the cells with RA leads to phosphorylation and subsequent aggregation of TAU, inducing a tauopathy in these cells. Cytotoxicity of cells was measured by quantification of lactate dehydrogenase (LDH) levels. In dead cells LDH is leaked out of the cells into the medium due to a loss of plasma-membrane integrity.
Briefly, 3 days preceding the experiment pre-cultures of M17.pcDNA3 and M17_3TAU(P301L) cells were prepared, starting from a stock culture, at a density of 50.000-100.000 cells/cm2 in detection medium (Optimem Reduced Serum without phenol red (Gibco, Cat. 31985-047) supplemented with 1% fetal calf serum (FCS), 1 mM sodium pyruvate, 1×non-essential amino acids (NEAA), 500 μg/ml G418 and 0.5×antibiotic/antimycotic (ABAM)). At the day of the experiment these precultures were diluted to ˜[…] in detection medium without FCS and 60 μL of this suspension is dispensed per well into a 96-well microtiter plate. After 3 hours of incubation at 37° C./5% C02 an equal volume of detection medium containing 2.5 μM RA was added and subsequently incubated for 7 days at 37° C./5% CO2. After 7 days, LDH activity was determined using the Promega Cytotox 96 Non-Radioactive cytotoxicity assay (Cat. G1780), according the manufacturer's instructions. Cytotoxicity is measured as the ratio of LDH increase in the supernatant divided by the LDH increase in the total cell suspension (sum of the LDH measured in cells and supernatant). Toxicity was determined after 7 days of differentiation with retinoic acid in M17_3TAU(P301 L) cells compared to M17.pcDNA3 cells.
The M17_3TAU(P301L) cell line makes it possible to assess the ability of novel compounds to inhibit TAU-induced cytotoxicity. […] Compounds were tested for their ability to hamper TAU-induced toxicity at different concentrations, ranging from low non-effective concentrations to high potent concentrations. Afterwards, the dose-dependent inhibition curve was used to calculate their EC50 (Table 3B).

| Compound | EC50 [nM] |
| --- | --- |
| COC(=O)c1ccc(CN2CC3(C2)CN(C(=O)Cc2ccc(Cl)cc2)C3)cc1 [Cpd B035, methyl 4-((6-(2-(4-chlorophenyl)acetyl)-2,6-diazaspiro[3.3]heptan-2-yl)methyl)benzoate] | 6.06 |
| COc1cc(OC)nc(CN2CC3(C2)CN(C(=O)Cc2ccc(Cl)cc2)C3)n1 [Cpd B036, 2-(4-chlorophenyl)-1-(6-((4,6-dimethoxypyrimidin-2-yl)methyl)-2,6-diazaspiro[3.3]heptan-2-yl)ethanone] | 17.6 |
| CC(c1cccc(C(F)(F)F)c1)N1CC2(CN(C(=O)Cc3ccc(Cl)cc3)C2)C1 (stereo not drawn) [Cpd B037, 2-(4-chlorophenyl)-1-(6-(1-(3-(trifluoromethyl)phenyl)ethyl)-2,6-diazaspiro[3.3]heptan-2-yl)ethanone] | 5.41 |
| Cc1cccc(CN2CC3(C2)CN(C(=O)Cc2ccc(Cl)cc2)C3)n1 [Cpd B038, 2-(4-chlorophenyl)-1-(6-((6-methylpyridin-2-yl)methyl)-2,6-diazaspiro[3.3]heptan-2-yl)ethanone] | 13.9 |
| O=C(Cc1ccc(Cl)cc1)N1CC2(CN(Cc3ncc(Cl)cn3)C2)C1 [Cpd B039, 2-(4-chlorophenyl)-1-(6-((5-chloropyrimidin-2-yl)methyl)-2,6-diazaspiro[3.3]heptan-2-yl)ethanone] | 56.3 |
| O=C(Cc1ccc(Cl)cc1)N1CC2(CN(Cc3ccc(C(F)(F)F)o3)C2)C1 [Cpd B040, 2-(4-Chloro-phenyl)-1-[6-(5-trifluoromethyl-furan-2-ylmethyl)-2,6-diaza-spiro[3.3]hept-2-yl]-ethanone] | 40.4 |
| Cc1cc(CN2CC3(C2)CN(C(=O)Cc2ccc(Cl)cc2)C3)no1 [Cpd B041, 2-(4-chlorophenyl)-1-(6-((5-methylisoxazol-3-yl)methyl)-2,6-diazaspiro[3.3]heptan-2-yl)ethanone] | 141 |
| CCCN1CC2(C1)CN(C(=O)Cc1ccc(Cl)cc1)C2 [Cpd B042, 2-(4-chlorophenyl)-1-(6-propyl-2,6-diazaspiro[3.3]heptan-2-yl)ethanone] | 32.8 |
| O=C(Cc1ccc(Cl)cc1)N1CC2(CN(Cc3cscn3)C2)C1 [Cpd B043, 2-(4-chlorophenyl)-1-(6-(thiazol-4-ylmethyl)-2,6-diazaspiro[3.3]heptan-2-yl)ethanone] | 79.5 |
| O=C(Cc1ccc(Cl)cc1)N1CC2(CN(CCc3cccc(C(F)(F)F)c3)C2)C1 [Cpd B044, 2-(4-chlorophenyl)-1-(6-(3-(trifluoromethyl)phenethyl)-2,6-diazaspiro[3.3]heptan-2-yl)ethanone] | 16.1 |
| O=C(Cc1ccc(Cl)cc1)N1CC2(CN(CCc3cccc(F)c3)C2)C1 [Cpd B045, 2-(4-chlorophenyl)-1-(6-(3-fluorophenethyl)-2,6-diazaspiro[3.3]heptan-2-yl)ethanone] | 11.6 |
| COc1ccc(CCN2CC3(C2)CN(C(=O)Cc2ccc(Cl)cc2)C3)cc1 [Cpd B046, 2-(4-chlorophenyl)-1-(6-(4-methoxyphenethyl)-2,6-diazaspiro[3.3]heptan-2-yl)ethanone] | 4.11 |
| Cc1ccc(CCN2CC3(C2)CN(C(=O)Cc2ccc(Cl)cc2)C3)cc1 [Cpd B047, 2-(4-chlorophenyl)-1-(6-(4-methylphenethyl)-2,6-diazaspiro[3.3]heptan-2-yl)ethanone] | 13.6 |
| O=C(Cc1ccc(Cl)cc1)N1CC2(CN(CCc3ccc(F)cc3)C2)C1 [Cpd B048, 2-(4-chlorophenyl)-1-(6-(4-fluorophenethyl)-2,6-diazaspiro[3.3]heptan-2-yl)ethanone] | 8.85 |
| Cc1cccc(CCN2CC3(C2)CN(C(=O)Cc2ccc(Cl)cc2)C3)c1 [Cpd B049, 2-(4-chlorophenyl)-1-(6-(3-methylphenethyl)-2,6-diazaspiro[3.3]heptan-2-yl)ethanone] | 12.4 |
| CC(C)(C(=O)c1ccccc1)N1CC2(CN(C(=O)Cc3ccc(Cl)cc3)C2)C1 [Cpd B050, 2-(6-(2-(4-chlorophenyl)acetyl)-2,6-diazaspiro[3.3]heptan-2-yl)-2-methyl-1-phenylpropan-1-one] | 72.8 |
| Cc1cccc(CCN2CC3(C2)CN(C(=O)Cc2ccc(Cl)cc2)C3)n1 [Cpd B051, 2-(4-chlorophenyl)-1-(6-(2-(6-methylpyridin-2-yl)ethyl)-2,6-diazaspiro[3.3]heptan-2-yl)ethanone] | 30.7 |
| O=C(Cc1ccc(Cl)cc1)N1CC2(CN(CCc3ccccc3)C2)C1 [Cpd B052, 2-(4-chlorophenyl)-1-(6-phenethyl-2,6-diazaspiro[3.3]heptan-2-yl)ethanone] | 15.9 |

| Compound | EC50 [nM] |
| --- | --- |
| CC(C)CCN1CC2(C1)CN(C(=O)Cc1ccc(Cl)cc1)C2 [Cpd B053, 2-(4-chlorophenyl)-1-(6-isopentyl-2,6-diazaspiro[3.3]heptan-2-yl)ethanone] | 5.07 |
| CC(Cc1ccccc1)N1CC2(CN(C(=O)Cc3ccc(Cl)cc3)C2)C1 (stereo not drawn) [Cpd B054, 2-(4-chlorophenyl)-1-(6-(1-phenylpropan-2-yl)-2,6-diazaspiro[3.3]heptan-2-yl)ethanone] | 19.2 |
| O=C(Cc1ccc(Cl)cc1)N1CC2(CN(Cc3ccc(F)c(F)c3)C2)C1 [Cpd B055, 2-(4-chlorophenyl)-1-(6-(3,4-difluorobenzyl)-2,6-diazaspiro[3.3]heptan-2-yl)ethanone] | 5.13 |
| O=C(Cc1ccc(Cl)cc1)N1CC2(CN(CC3CCCCC3)C2)C1 [Cpd B056, 2-(4-chlorophenyl)-1-(6-(cyclohexylmethyl)-2,6-diazaspiro[3.3]heptan-2-yl)ethanone] | 1.44 |
| O=C(Cc1ccc(Cl)cc1)N1CC2(CN(CCC3CCCCC3)C2)C1 [Cpd B057, 2-(4-chlorophenyl)-1-(6-(2-cyclohexylethyl)-2,6-diazaspiro[3.3]heptan-2-yl)ethanone] | 1.58 |
| COc1ccccc1CCCN1CC2(C1)CN(C(=O)Cc1ccc(Cl)cc1)C2 [Cpd B058, 2-(4-chlorophenyl)-1-(6-(3-(2-methoxyphenyl)propyl)-2,6-diazaspiro[3.3]heptan-2-yl)ethanone] | 1.72 |
| COc1ccc(CCCN2CC3(C2)CN(C(=O)Cc2ccc(Cl)cc2)C3)cc1 [Cpd B059, 2-(4-chlorophenyl)-1-(6-(3-(4-methoxyphenyl)propyl)-2,6-diazaspiro[3.3]heptan-2-yl)ethanone] | 1.23 |
| COc1ccc(CCCN2CC3(C2)CN(C(=O)Cc2ccc(F)cc2)C3)cc1 [Cpd B060, 2-(4-Fluoro-phenyl)-1-{6-[3-(4-methoxy-phenyl)-propyl]-2,6-diaza-spiro[3.3]hept-2-yl}-ethanone] | 0.81 |
| O=C(Cc1ccc(Cl)cc1)N1CC2(CN(CCc3ccccc3Cl)C2)C1 [Cpd B062, 1-(6-(2-chlorophenethyl)-2,6-diazaspiro[3.3]heptan-2-yl)-2-(4-chlorophenyl)ethanone] | 1.08 |
| O=C(Cc1ccc(F)cc1)N1CC2(CN(CCc3ccccc3Cl)C2)C1 [Cpd B063, 1-{6-[2-(2-Chloro-phenyl)-ethyl]-2,6-diaza-spiro[3.3]hept-2-yl}-2-(4-fluoro-phenyl)-ethanone] | 3.12 |
| COc1cc(OC)nc(CN2CC3(C2)CN(C(=O)Cc2ccc(F)cc2)C3)n1 [Cpd B064, 1-[6-(4,6-Dimethoxy-pyrimidin-2-ylmethyl)-2,6-diaza-spiro[3.3]hept-2-yl]-2-(4-fluoro-phenyl)-ethanone] | 32.8 |
| CC(c1ccccc1)N1CC2(CN(C(=O)Cc3ccc(Cl)cc3)C2)C1 (stereo not drawn) [Cpd B065, 2-(4-chlorophenyl)-1-(6-(1-phenylethyl)-2,6-diazaspiro[3.3]heptan-2-yl)ethanone] | 3.23 |
| O=C(Cc1ccc(F)cc1)NC1CC2(CC(NCc3ccccc3)C2)C1 (stereo not drawn) [Cpd B066, N-(6-(benzylamino)spiro[3.3]heptan-2-yl)-2-(4-fluorophenyl)acetamide] | 130 |
| CN(Cc1ccccc1)C1CC2(CC(NC(=O)Cc3ccc(F)cc3)C2)C1 (stereo not drawn) [Cpd B067, N-(6-(benzyl(methyl)amino)spiro[3.3]heptan-2-yl)-2-(4-fluorophenyl)acetamide] | 3.54 |
| CN(Cc1ccccc1)C1CC2(CC(NC(=O)Cc3ccc(Cl)cc3)C2)C1 (stereo not drawn) [Cpd B068, N-(6-(benzyl(methyl)amino)spiro[3.3]heptan-2-yl)-2-(4-chlorophenyl)acetamide] | 13.4 |
| COc1cccc(CN2CC3(C2)CN(C(=O)COC2CCCCC2)C3)c1 [Cpd B070] | 54 |
| COc1cccc(CN2CC3(C2)CN(C(=O)CCC2CCCC2)C3)c1 [Cpd B071] | 2.96 |
| COc1cccc(CN2CC3(C2)CN(C(=O)CC2CCCCC2)C3)c1 [Cpd B073] | 5 |
